Results on five molecules are retold here after publication PMC3383625 (Chemistry & biology, 2012).

“And” between values parts separate entries of the source, which are not always exact repeats. Equal entries are not always repeated. Where two headings read alike, the source gives them in different places. rhodamine = not defined here

Test [1] deals with T1, bis-SH3 domain of p47phox (binding of the PRD of p22phox) (Homo sapiens, UniProt P14598).
T1 sequence (P14598 156-285): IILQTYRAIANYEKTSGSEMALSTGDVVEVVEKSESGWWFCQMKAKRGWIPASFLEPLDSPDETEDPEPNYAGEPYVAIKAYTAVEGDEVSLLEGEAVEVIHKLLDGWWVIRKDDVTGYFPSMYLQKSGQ
The test can be described thus: Fluorescence polarization.

A further test has as its target T2, Nox4 (Homo sapiens, UniProt Q9NPH5).
T2 sequence (Q9NPH5 1-578): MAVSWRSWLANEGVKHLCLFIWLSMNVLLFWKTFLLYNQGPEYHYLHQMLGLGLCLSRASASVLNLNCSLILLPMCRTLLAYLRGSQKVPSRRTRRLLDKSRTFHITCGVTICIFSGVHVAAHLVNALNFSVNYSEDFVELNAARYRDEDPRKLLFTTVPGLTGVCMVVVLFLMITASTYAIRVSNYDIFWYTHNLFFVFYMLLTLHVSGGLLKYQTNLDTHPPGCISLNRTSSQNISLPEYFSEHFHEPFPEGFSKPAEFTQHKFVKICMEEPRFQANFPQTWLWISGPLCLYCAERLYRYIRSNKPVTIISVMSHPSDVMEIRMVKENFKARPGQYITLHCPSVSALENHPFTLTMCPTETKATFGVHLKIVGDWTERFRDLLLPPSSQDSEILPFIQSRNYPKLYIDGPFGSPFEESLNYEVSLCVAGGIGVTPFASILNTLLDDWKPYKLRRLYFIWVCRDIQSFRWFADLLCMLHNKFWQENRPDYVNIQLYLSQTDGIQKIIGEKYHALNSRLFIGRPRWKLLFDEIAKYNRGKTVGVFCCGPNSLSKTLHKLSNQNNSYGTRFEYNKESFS
T2 sequence (P13498 2-195 partner limits assumed): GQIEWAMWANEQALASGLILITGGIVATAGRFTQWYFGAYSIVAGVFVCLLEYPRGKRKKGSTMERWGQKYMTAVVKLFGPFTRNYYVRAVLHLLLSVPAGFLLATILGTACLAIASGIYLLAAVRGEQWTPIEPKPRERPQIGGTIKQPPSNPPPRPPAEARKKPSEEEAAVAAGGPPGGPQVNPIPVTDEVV
Description: Nox4 activity in whole cells. Conditions: read-out: EC50 for inhibition of Nox4 activity in whole cell assay; HEK/Nox4rb cells; ns = no significant inhibition. The test is classed as cell-based.

The next test concerns the target Nox1 (Homo sapiens, UniProt Q9Y5S8). The test can be described thus: Nox1 activity in whole cells.
Test [2] concerns the target T3, Nox2 (Homo sapiens, UniProt P04839). Description: Nox2 activity in intact PMA-stimulated neutrophils. Type of test: cell-based.
Target sequence in this assay (P04839 2-570 limits assumed, one chain of several): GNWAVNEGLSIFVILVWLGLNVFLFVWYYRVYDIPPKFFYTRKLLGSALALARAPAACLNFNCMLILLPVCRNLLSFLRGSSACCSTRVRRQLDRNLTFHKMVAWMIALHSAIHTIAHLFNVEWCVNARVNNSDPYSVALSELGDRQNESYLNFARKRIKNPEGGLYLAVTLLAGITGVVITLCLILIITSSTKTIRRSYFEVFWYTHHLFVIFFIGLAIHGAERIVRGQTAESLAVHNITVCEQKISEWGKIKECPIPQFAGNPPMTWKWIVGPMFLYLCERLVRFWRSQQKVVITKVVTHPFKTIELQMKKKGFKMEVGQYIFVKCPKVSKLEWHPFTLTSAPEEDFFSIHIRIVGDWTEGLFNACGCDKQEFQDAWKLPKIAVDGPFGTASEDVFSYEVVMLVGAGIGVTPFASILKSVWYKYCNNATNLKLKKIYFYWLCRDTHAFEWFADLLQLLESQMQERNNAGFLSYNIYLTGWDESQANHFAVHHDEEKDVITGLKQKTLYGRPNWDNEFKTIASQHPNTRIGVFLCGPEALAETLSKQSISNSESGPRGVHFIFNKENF
Test [3] addresses T3, Nox2. Description: Cell-free assay for Nox2-dependent superoxide generation. Type of test: biochemical.
Target sequence in this assay (P04839 2-570 limits assumed, one chain of several): as above
The conditions of test [4]: ref Muller et al.,1984; cited from earlier work.
In test [5] the test system is protein-kinase-C-mediated phosphorylation of p47phox. The test can be described thus: PKC-mediated phosphorylation of p47phox in neutrophils. The test is classed as cell-based, human. As to conditions: 10 μM ebselen.
In the next test the test system is Kupffer cells. As to conditions: read-out: IC50 for reactive oxygen by luminol luminescence; ref Wang et al.,1992; cited from earlier work.
For another test, the system named is PKC. Conditions: ref Cotgreave et al.,1989; cited from earlier work.
In test [6] the target is T4, binding of MBP-p22-C and GST-p47-bis-SH3 (Homo sapiens, UniProt P14598).
T4 sequence (P14598 156-285): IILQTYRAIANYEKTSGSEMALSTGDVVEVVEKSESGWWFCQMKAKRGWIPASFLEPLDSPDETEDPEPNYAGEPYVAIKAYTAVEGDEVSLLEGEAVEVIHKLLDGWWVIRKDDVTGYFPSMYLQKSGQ
Description: Pull-down assay of MBP-p22-C with GST-p47-bis-SH3 on glutathione agarose beads. As to conditions: 20 μM ebselen.

Test [7] concerns p47phox and p67phox translocation in neutrophils. The test is classed as cell-based, human. As to conditions: 10 μM ebselen.
The test system of test [8] is guinea pig alveolar macrophages. Conditions: read-out: IC50 for inhibition in guinea pig macrophages; ref Leurs et al.,1989; cited from earlier work.
Test [9] addresses T5, p67phox-p47phox association (Homo sapiens, UniProt P14598).
T5 sequence (P14598 1-390): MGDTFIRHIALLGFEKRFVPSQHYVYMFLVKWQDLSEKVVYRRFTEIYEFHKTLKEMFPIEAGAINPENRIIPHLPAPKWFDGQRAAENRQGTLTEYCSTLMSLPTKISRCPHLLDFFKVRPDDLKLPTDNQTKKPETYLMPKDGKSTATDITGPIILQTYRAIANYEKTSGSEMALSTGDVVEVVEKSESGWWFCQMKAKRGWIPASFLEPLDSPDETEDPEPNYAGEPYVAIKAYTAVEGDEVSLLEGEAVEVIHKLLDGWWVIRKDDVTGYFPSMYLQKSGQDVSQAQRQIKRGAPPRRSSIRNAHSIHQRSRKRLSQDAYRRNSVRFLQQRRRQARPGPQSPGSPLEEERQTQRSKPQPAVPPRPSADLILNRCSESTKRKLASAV
The test can be described thus: Co-immunoprecipitation of p67phox with p47phox in PMA-stimulated neutrophils. Type of test: cell-based. As to conditions: 10 μM ebselen, PMA-stimulated cells.

The target of test [10] is T6, GST-tagged p47phox-bis-SH3 domain (GST-p47-bis-SH3) (human, UniProt P14598 156-285).
T6 sequence (looked up): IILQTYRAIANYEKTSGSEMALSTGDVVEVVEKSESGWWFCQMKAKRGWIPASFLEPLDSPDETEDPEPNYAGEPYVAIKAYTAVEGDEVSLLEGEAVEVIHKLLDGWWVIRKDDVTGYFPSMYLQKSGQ
Description: fluorescence polarisation. Background: Polarisation of emitted light reports the rotation of a fluorescent probe.

[11] abbreviates: comparator as named in text (parent Thr101 or fluoro-derivative j).

Nox1, sequence (Q8NFA2 whole entry partner): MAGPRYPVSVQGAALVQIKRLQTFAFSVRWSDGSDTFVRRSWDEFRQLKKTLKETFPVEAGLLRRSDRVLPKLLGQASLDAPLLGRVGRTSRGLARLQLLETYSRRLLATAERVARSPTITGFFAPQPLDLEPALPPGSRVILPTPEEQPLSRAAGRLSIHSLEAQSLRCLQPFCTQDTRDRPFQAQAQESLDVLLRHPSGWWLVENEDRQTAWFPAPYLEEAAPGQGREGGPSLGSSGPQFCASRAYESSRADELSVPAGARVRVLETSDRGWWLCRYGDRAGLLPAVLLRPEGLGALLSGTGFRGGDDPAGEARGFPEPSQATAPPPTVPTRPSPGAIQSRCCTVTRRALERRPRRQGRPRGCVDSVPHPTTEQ
Nox1, sequence (Q9Y5S8 whole entry): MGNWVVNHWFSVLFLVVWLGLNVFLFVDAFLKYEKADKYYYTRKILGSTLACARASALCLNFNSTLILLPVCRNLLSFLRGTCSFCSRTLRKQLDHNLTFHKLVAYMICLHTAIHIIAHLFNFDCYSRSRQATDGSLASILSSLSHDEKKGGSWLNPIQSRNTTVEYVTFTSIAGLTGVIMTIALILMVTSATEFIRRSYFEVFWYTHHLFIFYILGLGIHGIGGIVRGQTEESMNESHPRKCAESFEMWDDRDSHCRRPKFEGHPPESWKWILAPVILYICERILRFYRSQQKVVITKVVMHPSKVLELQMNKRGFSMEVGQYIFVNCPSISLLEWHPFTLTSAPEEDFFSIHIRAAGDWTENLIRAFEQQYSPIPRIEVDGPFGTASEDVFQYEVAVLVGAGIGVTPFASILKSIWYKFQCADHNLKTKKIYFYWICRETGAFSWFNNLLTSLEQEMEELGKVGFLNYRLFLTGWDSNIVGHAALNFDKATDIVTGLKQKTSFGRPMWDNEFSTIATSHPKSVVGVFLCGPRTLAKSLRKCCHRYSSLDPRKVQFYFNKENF

The term EC50 denotes the concentration that produces a half-maximal response. With `O=c1c2ccccc2sn1-c1ccccc1` [Thr101], the IC50 is 4000 nM and ~4000 nM in [1] (read-out: IC50 in the FP binding assay, rho-PRD plus GST-p47-bis-SH3, 1% DMSO); 4000 nM and ~4000 nM on Nox2 [3] (read-out: IC50 in the cell-free Nox2 activity assay, neutrophil membranes, 1% DMSO). Moreover, the EC50 at Nox4 was 8000 nM; at Nox1 (read-out: EC50 for inhibition of Nox1 activity in whole cell assay, HEK/Nox1rb cells, ns = no significant inhibition), 3000 nM; at Nox2 [2] (read-out: EC50 for inhibition of Nox2 activity in whole cell assay, human neutrophils, ns = no significant inhibition), 300 nM.

On to `O=c1c2ccccc2[se]n1-c1ccccc1` [Ebselen], for which the “IC50 in the FP binding assay” value in test [1] (rho-PRD plus GST-p47-bis-SH3, 1% DMSO) is listed as “submicromolar”. In addition, the “Optimum concentration needed to catalyze H2O2 peroxidase activity” value in [4] is “about 20 μM”. In addition, the figures for the “Effect on protein-kinase-C-mediated phosphorylation of p47phox or other neutrophil proteins (words)” value in test [5] and in [5] (listed as ebselen) were “did not affect” and “does not inhibit PKC phosphorylation”, respectively. The figures for the IC50 (in the test on Kupffer cells; in test [8]) were approximately 1000 nM and approximately 20000 nM, respectively. In addition, the “Concentration inhibiting purified PKC enzyme” value in the test with PKC is “submicromolar”. On Nox1, this molecule came in with a half-maximal effective concentration (EC50) of 150 nM. Moreover, the “Inhibition of binding of MBP-p22-C and GST-p47-bis-SH3 in pulldown” value in test [6] is “markedly inhibited”. In addition, the “Effect on PMA-stimulated translocation of p47phox and p67phox” value in [7] (500 nM PMA) is “completely blocked”. In addition, the “Effect on translocation in the absence of PMA” value in [7] (no PMA) is on record as “no effect on translocation”. The “Effect on co-immunoprecipitation of p67phox with p47phox (words)” value in test [9] is recorded as “did affect the ability of p67phox to coimmunoprecipitate with p47phox”; in test [9] (listed as ebselen), “diminishes the co-immunoprecipitation”.

As to `COC(=O)c1ccc(-n2sc3ccccc3c2=O)cc1` [l], the “Fold improvement in binding versus comparator compound” value in test [1] (setting [11]) is reported as ~ 10 fold. Also, in [1] (read-out: Potency in the binding assay, FP assay), the IC50 was determined as 500 nM. Further, on Nox2 [3] (setting [11]), the “Fold improvement in activity versus comparator compound” value was ~ 10 fold.

`c1ccc2c(c1)[I+]c1ccccc1-2` [DPI, diphenylene iodonium]: the “Luminescence relative to DMSO-treated cells” value at Nox2 [2] (neutrophils, 10 uM DPI, data not shown) was “less than 10%”. For the same molecule, the “Luminescence relative to incubations containing DMSO vehicle alone” value at Nox2 [3] (cell-free Nox2 assay, data not shown) is reported as “less than 10%”.

As a reminder, the Kd is the concentration at which binding is half-saturated. On to rhodamine-PPTNPPPRPPAE-NH2 (reading uncertain) [rhodamine-labeled peptide corresponding to the PRD of p22phox (rho-PRD)], for which the Kd in test [10] is 20 to 40 nM and 20 nM.
